Article PMC8667816, “VTT-006, an anti-mitotic compound, binds to the Ndc80 complex and suppresses cancer cell growth in vitro” (Oncoscience, 2021)

How the values were obtained:
[1] = target: T1, GFP-tagged Ndc80 complex (Ndc80-GFP) (Homo sapiens, UniProt O14777); experiment: single-molecule TIRF, residence time of Ndc80-GFP on microtubules; format: biochemical; conditions: 10 μM VTT-006; Taxol-stabilized microtubules, BRB80 pH 6.9; Ndc80 6–10 pM
T1 construct: with Kinetochore protein Nuf2; Kinetochore protein Spc25; Kinetochore protein Spc24

[2] = target: T2, recombinant Ndc80 complex (Bonsai; Ndc80^bonsai) (Homo sapiens, UniProt O14777); experiment: fluorescence anisotropy of the compound (ex […] nm, em […] nm); format: binding; conditions: PBS, 23 °C; 5 μM VTT-006, 1–15 μM protein; one site model with ligand depletion
T2 construct: Ndc80 bonsai: globular domains with shortened rod; plasmid from A. Musacchio; E. coli BL21(DE3), GST cut off with PreScission; with Kinetochore protein Nuf2; Kinetochore protein Spc25; Kinetochore protein Spc24
T2 sequence (O14777 1-286 limits assumed): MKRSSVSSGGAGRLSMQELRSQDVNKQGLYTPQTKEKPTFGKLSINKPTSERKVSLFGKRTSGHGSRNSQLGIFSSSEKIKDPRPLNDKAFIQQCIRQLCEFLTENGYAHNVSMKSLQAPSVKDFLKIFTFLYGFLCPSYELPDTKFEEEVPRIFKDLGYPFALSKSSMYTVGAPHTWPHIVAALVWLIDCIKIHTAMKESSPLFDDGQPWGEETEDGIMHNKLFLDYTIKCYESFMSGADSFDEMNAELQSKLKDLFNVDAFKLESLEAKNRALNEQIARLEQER
T2 sequence (Q9BZD4 1-169 partner limits assumed): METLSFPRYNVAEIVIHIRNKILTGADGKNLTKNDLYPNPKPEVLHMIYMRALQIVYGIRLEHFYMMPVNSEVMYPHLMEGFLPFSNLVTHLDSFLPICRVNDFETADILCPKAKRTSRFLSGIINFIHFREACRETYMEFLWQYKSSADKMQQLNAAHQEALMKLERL
T2 sequence (Q9HBM1 118-224 partner limits assumed): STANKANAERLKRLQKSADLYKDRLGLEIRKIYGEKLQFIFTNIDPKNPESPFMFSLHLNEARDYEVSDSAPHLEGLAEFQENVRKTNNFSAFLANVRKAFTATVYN
T2 sequence (Q8NBT2 122-197 partner limits assumed): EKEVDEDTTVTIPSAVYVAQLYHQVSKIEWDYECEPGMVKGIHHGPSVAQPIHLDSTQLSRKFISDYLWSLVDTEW

T1 sequence (O14777 whole entry): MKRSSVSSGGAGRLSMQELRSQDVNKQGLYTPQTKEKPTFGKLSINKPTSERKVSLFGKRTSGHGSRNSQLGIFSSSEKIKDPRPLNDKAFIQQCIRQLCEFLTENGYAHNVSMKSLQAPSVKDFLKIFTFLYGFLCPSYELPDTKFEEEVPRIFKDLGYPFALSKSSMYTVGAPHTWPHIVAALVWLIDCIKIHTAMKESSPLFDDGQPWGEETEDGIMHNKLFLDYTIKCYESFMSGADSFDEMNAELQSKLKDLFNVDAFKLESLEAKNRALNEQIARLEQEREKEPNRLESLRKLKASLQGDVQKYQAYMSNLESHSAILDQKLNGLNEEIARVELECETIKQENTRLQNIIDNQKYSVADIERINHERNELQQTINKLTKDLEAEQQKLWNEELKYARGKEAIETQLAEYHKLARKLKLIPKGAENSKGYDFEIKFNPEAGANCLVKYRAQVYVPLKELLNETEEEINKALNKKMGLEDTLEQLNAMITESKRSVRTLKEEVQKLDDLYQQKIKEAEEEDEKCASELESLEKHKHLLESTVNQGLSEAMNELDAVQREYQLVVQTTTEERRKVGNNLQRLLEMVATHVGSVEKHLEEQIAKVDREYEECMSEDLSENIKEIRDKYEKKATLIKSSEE
T1 sequence (Q9BZD4 whole entry partner): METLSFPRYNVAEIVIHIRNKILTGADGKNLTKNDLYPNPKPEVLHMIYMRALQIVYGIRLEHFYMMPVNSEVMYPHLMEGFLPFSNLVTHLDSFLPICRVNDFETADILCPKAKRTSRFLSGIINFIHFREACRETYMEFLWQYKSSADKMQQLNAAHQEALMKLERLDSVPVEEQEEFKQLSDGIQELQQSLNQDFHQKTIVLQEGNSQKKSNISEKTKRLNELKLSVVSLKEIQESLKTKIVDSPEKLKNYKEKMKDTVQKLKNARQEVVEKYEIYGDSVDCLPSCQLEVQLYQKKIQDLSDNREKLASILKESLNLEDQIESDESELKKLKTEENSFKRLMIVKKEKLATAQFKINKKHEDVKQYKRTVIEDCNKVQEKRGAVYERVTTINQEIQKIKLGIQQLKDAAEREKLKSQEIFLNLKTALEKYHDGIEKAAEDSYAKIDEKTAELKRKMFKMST
T1 sequence (Q8NBT2 whole entry partner): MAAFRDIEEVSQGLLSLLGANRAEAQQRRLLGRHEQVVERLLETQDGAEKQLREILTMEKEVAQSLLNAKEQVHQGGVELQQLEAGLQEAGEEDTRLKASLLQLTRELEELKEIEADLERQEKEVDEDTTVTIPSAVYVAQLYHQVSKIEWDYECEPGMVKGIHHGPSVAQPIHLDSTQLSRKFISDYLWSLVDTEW
T1 sequence (Q9HBM1 whole entry partner): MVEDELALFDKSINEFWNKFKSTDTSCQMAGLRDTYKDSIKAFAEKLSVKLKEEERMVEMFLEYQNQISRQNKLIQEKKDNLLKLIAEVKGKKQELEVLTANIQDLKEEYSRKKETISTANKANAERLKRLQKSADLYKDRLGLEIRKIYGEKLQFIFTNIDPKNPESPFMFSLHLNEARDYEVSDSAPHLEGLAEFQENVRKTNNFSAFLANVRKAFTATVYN

In the case of CC#CC(=O)N1CCc2c([nH]c3ccccc23)C1c1ccc(OC)c(C)c1 (stereo not drawn) [VTT-006, 2-(2-butynoyl)-1-(4-methoxy-3-methylphenyl)-2,3,4,9-tetrahydro-1H-beta-carboline], the koff [1] is reported as “residence time of Ndc80-GFP on microtubules was significantly shorter in the presence of VTT-006” and the Kd [2] is reported as 2070 ± 2840 nM.
